Experimental data reported in publication PMC4303209, “A novel phosphatidylinositol 3-kinase (PI3K) inhibitor directs a potent FOXO-dependent, p53-independent cell cycle arrest phenotype characterized by the differential induction of a subset of FOXO-regulated genes” (Breast Cancer Research : BCR, 2014).

System: MCF-7 breast cancer cells
Test: Microarray gene expression analysis (Agilent whole human genome 4 x 44K; compound vs DMSO, LIMMA log2 fold change)
Assay type: cell-based

Cn1ncc2c(N3CCOCC3)nc(-c3cccc(O)c3)nc21 [ETP-45658]
BCL11B log2FC (Apoptosis genes, Gene 64919): 0.176 | MRPL41 log2FC (Apoptosis genes, Gene 64975): -0.545 | PINK1 log2FC (Apoptosis genes, Gene 65018): 1.625 | PRAMEF1 log2FC (Apoptosis genes, Gene 65121): -0.072 | PRAMEF2 log2FC (Apoptosis genes, Gene 65122): 0.062 | UBE2Z log2FC (Apoptosis genes, Gene 65264): -0.414 | TMEM109 log2FC (Apoptosis genes, Gene 79073): -0.626 | CHAC1 log2FC (Apoptosis genes, Gene 79094): -0.144 | TNIP2 log2FC (Apoptosis genes, Gene 79155): -0.126 | PLEKHF1 log2FC (Apoptosis genes, Gene 79156): -0.469 | THOC6 log2FC (Apoptosis genes, Gene 79228): -0.373 | BCL2L14 log2FC (Apoptosis genes, Gene 79370): -0.145 | BIRC7 log2FC (Apoptosis genes, Gene 79444): -0.043 | ELMO3 log2FC (Apoptosis genes, Gene 79767): -0.597 | SLTM log2FC (Apoptosis genes, Gene 79811): 0.763 | ZC3H12A log2FC (Apoptosis genes, Gene 80149): -1.168 | RNF34 log2FC (Apoptosis genes, Gene 80196): -0.174 | ELL3 log2FC (Apoptosis genes, Gene 80237): 1.095 | CPEB4 log2FC (Apoptosis genes, Gene 80315): 0.577 | COL18A1 log2FC (Apoptosis genes, Gene 80781): -0.387 | SGPP1 log2FC (Apoptosis genes, Gene 81537): -0.165 | SHARPIN log2FC (Apoptosis genes, Gene 81858): -0.232 | APH1B log2FC (Apoptosis genes, Gene 83464): -0.559 | RASSF5 log2FC (Apoptosis genes, Gene 83593): -0.091 | SOX7 log2FC (Apoptosis genes, Gene 83595): -0.214 | BCL2L12 log2FC (Apoptosis genes, Gene 83596): -0.236 | ITCH log2FC (Apoptosis genes, Gene 83737): 0.721 | CDCA7 log2FC (Apoptosis genes, Gene 83879): 0.213 | TATDN1 log2FC (Apoptosis genes, Gene 83940): 0.636 | TM2D1 log2FC (Apoptosis genes, Gene 83941): 0.088 | OBSCN log2FC (Apoptosis genes, Gene 84033): 0.277 | TRAF7 log2FC (Apoptosis genes, Gene 84231): -0.191 | RHBDD1 log2FC (Apoptosis genes, Gene 84236): -0.533 | TCHP log2FC (Apoptosis genes, Gene 84260): 0.198 | ZDHHC16 log2FC (Apoptosis genes, Gene 84287): -0.471 | ING5 log2FC (Apoptosis genes, Gene 84289): -0.932 | AKT1S1 log2FC (Apoptosis genes, Gene 84335): -0.939 | CARD11 log2FC (Apoptosis genes, Gene 84433): 0.083 | SYVN1 log2FC (Apoptosis genes, Gene 84447): 0.455 | ZC3H8 log2FC (Apoptosis genes, Gene 84524): 1.519 | FNDC1 log2FC (Apoptosis genes, Gene 84624): -0.102 | CARD6 log2FC (Apoptosis genes, Gene 84674): 0.198 | HINT2 log2FC (Apoptosis genes, Gene 84681): -0.153 | BEX2 log2FC (Apoptosis genes, Gene 84707): 0.736 | TNS4 log2FC (Apoptosis genes, Gene 84951): -1.366 | ATG4D log2FC (Apoptosis genes, Gene 84971): -0.461 | SCRT2 log2FC (Apoptosis genes, Gene 85508): -0.569 | WNT3A log2FC (Apoptosis genes, Gene 89780): -0.585 | FGD3 log2FC (Apoptosis genes, Gene 89846): 0.596 | UNC5A log2FC (Apoptosis genes, Gene 90249): -0.468 | BMF log2FC (Apoptosis genes, Gene 90427): 2.299 | MTDH log2FC (Apoptosis genes, Gene 92140): 0.563 | TIMM50 log2FC (Apoptosis genes, Gene 92609): -0.439 | TP53INP1 log2FC (Apoptosis genes, Gene 94241): 0.920 | EGLN2 log2FC (Apoptosis genes, Gene 112398): 0.272 | EGLN3 log2FC (Apoptosis genes, Gene 112399): -0.474 | PNMA5 log2FC (Apoptosis genes, Gene 114824): 0.435 | SLC5A11 log2FC (Apoptosis genes, Gene 115584): 0.136 | TWIST2 log2FC (Apoptosis genes, Gene 117581): -0.722 | RFFL log2FC (Apoptosis genes, Gene 117584): -0.488 | FGD4 log2FC (Apoptosis genes, Gene 121512): 0.637 | RXFP2 log2FC (Apoptosis genes, Gene 122042): -0.049 | DCUN1D3 log2FC (Apoptosis genes, Gene 123879): -1.081 | ACVR1C log2FC (Apoptosis genes, Gene 130399): 0.259 | IL31RA log2FC (Apoptosis genes, Gene 133396): 0.071 | JMY log2FC (Apoptosis genes, Gene 133746): 1.016 | UNC5D log2FC (Apoptosis genes, Gene 137970): 0.118 | DYNLL2 log2FC (Apoptosis genes, Gene 140735): -0.697 | PSMA8 log2FC (Apoptosis genes, Gene 143471): 0.068 | TICAM1 log2FC (Apoptosis genes, Gene 148022): -0.493 | BNIPL log2FC (Apoptosis genes, Gene 149428): -0.061 | ZSWIM2 log2FC (Apoptosis genes, Gene 151112): 0.088 | DAB2IP log2FC (Apoptosis genes, Gene 153090): -0.220 | SLC5A8 log2FC (Apoptosis genes, Gene 160728): -0.070 | PTCRA log2FC (Apoptosis genes, Gene 171558): -0.425 | HIGD2A log2FC (Apoptosis genes, Gene 192286): -0.398 | FLCN log2FC (Apoptosis genes, Gene 201163): 0.968 | HIPK1 log2FC (Apoptosis genes, Gene 204851): -0.153 | UNC5B log2FC (Apoptosis genes, Gene 219699): -0.570 | RNF152 log2FC (Apoptosis genes, Gene 220441): -0.038 | FGD2 log2FC (Apoptosis genes, Gene 221472): -0.102 | MPV17L log2FC (Apoptosis genes, Gene 255027): -0.367 | TMEM23 log2FC (Apoptosis genes, Gene 259230): 0.357 | MAGI3 log2FC (Apoptosis genes, Gene 260425): 0.325 | BLOC1S2 log2FC (Apoptosis genes, Gene 282991): 0.498 | NRBP2 log2FC (Apoptosis genes, Gene 340371): -0.074 | NANOS3 log2FC (Apoptosis genes, Gene 342977): -0.124 | AMIGO2 log2FC (Apoptosis genes, Gene 347902): 0.532 | C6orf120 log2FC (Apoptosis genes, Gene 387263): -0.615 | GDF6 log2FC (Apoptosis genes, Gene 392255): -0.089 | MYO18A log2FC (Apoptosis genes, Gene 399687): -0.470 | PRAMEF3 log2FC (Apoptosis genes, Gene 401940): -0.272 | ADIPOQ log2FC (Apoptosis genes, Gene 414149): -0.245 | PIM3 log2FC (Apoptosis genes, Gene 415116): 0.693 | LGALS7 log2FC (Apoptosis genes, Gene 653499): -0.163 | CARD9 log2FC (Apoptosis genes, Gene 728489): -0.457 | PDCD6 log2FC (Apoptosis genes, Gene 728613): -0.285 | RRN3 log2FC (Apoptosis genes, Gene 730092): 0.619 | CD24 log2FC (Apoptosis genes, Gene 100133941): 0.127 | ACVR1 log2FC (Gene 90, cell cycle genes): 0.534 | ACVR1B log2FC (Gene 91, cell cycle genes): -0.563 | ADCYAP1 log2FC (Gene 116, cell cycle genes): 0.068 | AHR log2FC (Gene 196, cell cycle genes): 0.995 | AIF1 log2FC (Gene 199, cell cycle genes): -0.077 | AK1 log2FC (Gene 203, cell cycle genes): -0.344 | AKT1 log2FC (Gene 207, cell cycle genes): -0.608 | AKT2 log2FC (Gene 208, cell cycle genes): -0.554 | ALOX15B log2FC (Gene 247, cell cycle genes): -0.102 | ANK3 log2FC (Gene 288, cell cycle genes): 0.532 | ANXA1 log2FC (Gene 301, cell cycle genes): 0.991 | ANXA11 log2FC (Gene 311, cell cycle genes): -0.496 | APBB1 log2FC (Gene 322, cell cycle genes): 0.078 | APBB2 log2FC (Gene 323, cell cycle genes): -0.357 | APEX1 log2FC (Gene 328, cell cycle genes): 0.266 | BIRC2 log2FC (Gene 329, cell cycle genes): 0.082 | APP log2FC (Gene 351, cell cycle genes): 0.379 | ARF6 log2FC (Gene 382, cell cycle genes): -0.682 | RHOB log2FC (Gene 388, cell cycle genes): -0.133 | RHOC log2FC (Gene 389, cell cycle genes): -0.491 | ARL2 log2FC (Gene 402, cell cycle genes): -0.140 | ARL3 log2FC (Gene 403, cell cycle genes): 0.192 | ASNS log2FC (Gene 440, cell cycle genes): -0.404 | BACH1 log2FC (Gene 571, cell cycle genes): 0.774 | BARD1 log2FC (Gene 580, cell cycle genes): 0.487 | BBS4 log2FC (Gene 585, cell cycle genes): 1.207 | CCND1 log2FC (Gene 595, cell cycle genes): -1.564 | BCL2 log2FC (Gene 596, cell cycle genes): -0.310 | BCL2L1 log2FC (Gene 598, cell cycle genes): -0.991 | BCR log2FC (Gene 613, cell cycle genes): -0.914 | BID log2FC (Gene 637, cell cycle genes): -0.095 | BMP2 log2FC (Gene 650, cell cycle genes): -0.038 | BMP7 log2FC (Gene 655, cell cycle genes): -0.344 | DST log2FC (Gene 667, cell cycle genes): 0.571 | BRCA1 log2FC (Gene 672, cell cycle genes): 0.792 | BRDT log2FC (Gene 676, cell cycle genes): 0.068 | BUB1 log2FC (Gene 699, cell cycle genes): 0.803 | CALM1 log2FC (Gene 801, cell cycle genes): 0.216 | CALR log2FC (Gene 811, cell cycle genes): -0.081 | CAMK2A log2FC (Gene 815, cell cycle genes): 0.024 | CAMK2D log2FC (Gene 817, cell cycle genes): 0.613 | CAMK2G log2FC (Gene 818, cell cycle genes): 0.874 | CASP2 log2FC (Gene 835, cell cycle genes): -0.918 | CAV2 log2FC (Gene 858, cell cycle genes): 0.696 | RUNX3 log2FC (Gene 864, cell cycle genes): -0.494 | CCNA2 log2FC (Gene 890, cell cycle genes): -0.047 | CCNB1 log2FC (Gene 891, cell cycle genes): 0.072 | CCNC log2FC (Gene 892, cell cycle genes): 0.257 | CCND2 log2FC (Gene 894, cell cycle genes): -1.006 | CCND3 log2FC (Gene 896, cell cycle genes): -0.730 | CCNE1 log2FC (Gene 898, cell cycle genes): -0.471 | CCNG1 log2FC (Gene 900, cell cycle genes): 0.908 | CCNG2 log2FC (Gene 901, cell cycle genes): 3.913 | CD28 log2FC (Gene 940, cell cycle genes): 0.087 | CDC5L log2FC (Gene 988, cell cycle genes): 1.004 | CDC6 log2FC (Gene 990, cell cycle genes): -0.800 | CDC20 log2FC (Gene 991, cell cycle genes): -0.346 | CDC25A log2FC (Gene 993, cell cycle genes): -1.970
